CCOC(=O)C1=C(C)NC(C)=C(C(=O)OCC)C1
Details	solubility (mole fraction)
in 2-butanone, 272.15 K	0.00182
in 2-butanone, 278.15 K	0.00274
in 2-butanone, 283.15 K	0.00382
in 2-butanone, 288.15 K	0.00525
in 2-butanone, 293.15 K	0.00717
in 2-butanone, 298.15 K	0.00965
in 2-butanone, 303.35 K	0.013
in 2-butanone, 308.25 K	0.0171
in 2-butanone, 313.15 K	0.0222
in 2-butanone, 318.15 K	0.0288
in 2-butanone, 323.65 K	0.038
in 2-pentanone, 272.15 K	0.00169
in 2-pentanone, 278.15 K	0.00255
in 2-pentanone, 283.15 K	0.00353
in 2-pentanone, 288.15 K	0.00485
in 2-pentanone, 293.15 K	0.00657
in 2-pentanone, 298.15 K	0.00881
in 2-pentanone, 303.35 K	0.0119
in 2-pentanone, 308.25 K	0.0155
in 2-pentanone, 313.15 K	0.0202
in 2-pentanone, 318.15 K	0.026
in 2-pentanone, 323.65 K	0.0345
in acetone, 272.15 K	0.00112
in acetone, 278.15 K	0.00165
in acetone, 283.15 K	0.00225
in acetone, 288.15 K	0.00304
in acetone, 293.15 K	0.00407
in acetone, 298.15 K	0.0054
in acetone, 303.35 K	0.00718
in acetone, 308.25 K	0.00926
in acetone, 313.15 K	0.0119
in acetone, 318.15 K	0.0152
in acetone, 323.65 K	0.02
in acetonitrile, 272.15 K	0.000235
in acetonitrile, 278.15 K	0.000356
in acetonitrile, 283.15 K	0.000495
in acetonitrile, 288.15 K	0.000687
in acetonitrile, 293.15 K	0.000931
in acetonitrile, 298.15 K	0.00126
in acetonitrile, 303.35 K	0.0017
in acetonitrile, 308.25 K	0.00224
in acetonitrile, 313.15 K	0.00291
in acetonitrile, 318.15 K	0.0038
in acetonitrile, 323.65 K	0.00503
in ethanol, 272.15 K	0.000414
in ethanol, 277.95 K	0.000587
in ethanol, 283.15 K	0.000795
in ethanol, 288.15 K	0.00105
in ethanol, 293.05 K	0.00137
in ethanol, 298.15 K	0.00179
in ethanol, 303.15 K	0.00232
in ethanol, 308.05 K	0.00294
in ethanol, 312.35 K	0.00362
in ethanol, 318.15 K	0.00472
in ethanol, 323.15 K	0.0059
in ethyl acetate, 272.15 K	0.00135
in ethyl acetate, 278.15 K	0.00195
in ethyl acetate, 283.15 K	0.00261
in ethyl acetate, 288.15 K	0.00345
in ethyl acetate, 293.15 K	0.00453
in ethyl acetate, 298.15 K	0.00588
in ethyl acetate, 303.35 K	0.00767
in ethyl acetate, 308.25 K	0.00977
in ethyl acetate, 313.15 K	0.0123
in ethyl acetate, 318.15 K	0.0155
in ethyl acetate, 323.65 K	0.0198
in ethyl formate, 272.15 K	0.00082
in ethyl formate, 278.15 K	0.00117
in ethyl formate, 283.15 K	0.00155
in ethyl formate, 288.15 K	0.00204
in ethyl formate, 293.15 K	0.00266
in ethyl formate, 298.15 K	0.00343
in ethyl formate, 303.35 K	0.00444
in ethyl formate, 308.25 K	0.00562
in ethyl formate, 313.15 K	0.00703
in ethyl formate, 318.15 K	0.00881
in ethyl formate, 323.65 K	0.0112
in isobutanol, 272.15 K	0.000707
in isobutanol, 277.95 K	0.00106
in isobutanol, 283.15 K	0.00151
in isobutanol, 288.15 K	0.00209
in isobutanol, 293.05 K	0.00283
in isobutanol, 298.15 K	0.00386
in isobutanol, 303.15 K	0.00517
in isobutanol, 308.05 K	0.00684
in isobutanol, 312.35 K	0.00863
in isobutanol, 318.15 K	0.0117
in isobutanol, 323.15 K	0.0152
in isopentanol, 272.15 K	0.000677
in isopentanol, 277.95 K	0.000996
in isopentanol, 283.15 K	0.00139
in isopentanol, 288.15 K	0.00189
in isopentanol, 293.05 K	0.00254
in isopentanol, 298.15 K	0.00341
in isopentanol, 303.15 K	0.0045
in isopentanol, 308.05 K	0.00587
in isopentanol, 312.35 K	0.00738
in isopentanol, 318.15 K	0.00989
in isopentanol, 323.15 K	0.0126
in isopropanol, 272.15 K	0.000462
in isopropanol, 277.95 K	0.00066
in isopropanol, 283.15 K	0.000904
in isopropanol, 288.15 K	0.0012
in isopropanol, 293.05 K	0.00158
in isopropanol, 298.15 K	0.00208
in isopropanol, 303.15 K	0.00269
in isopropanol, 308.05 K	0.00344
in isopropanol, 312.35 K	0.00424
in isopropanol, 318.15 K	0.00557
in isopropanol, 323.15 K	0.00702
in methanol, 272.15 K	0.000246
in methanol, 277.95 K	0.000355
in methanol, 283.15 K	0.000486
in methanol, 288.15 K	0.000655
in methanol, 293.05 K	0.000865
in methanol, 298.15 K	0.00114
in methanol, 303.15 K	0.0015
in methanol, 308.05 K	0.00192
in methanol, 312.35 K	0.00238
in methanol, 318.15 K	0.00315
in methanol, 323.15 K	0.004
in methyl acetate, 272.15 K	0.00103
in methyl acetate, 278.15 K	0.00146
in methyl acetate, 283.15 K	0.00192
in methyl acetate, 288.15 K	0.00251
in methyl acetate, 293.15 K	0.00326
in methyl acetate, 298.15 K	0.0042
in methyl acetate, 303.35 K	0.00541
in methyl acetate, 308.25 K	0.00679
in methyl acetate, 313.15 K	0.00848
in methyl acetate, 318.15 K	0.0106
in methyl acetate, 323.65 K	0.0134
in n-butanol, 272.15 K	0.000605
in n-butanol, 277.95 K	0.000859
in n-butanol, 283.15 K	0.00116
in n-butanol, 288.15 K	0.00154
in n-butanol, 293.05 K	0.00201
in n-butanol, 298.15 K	0.00262
in n-butanol, 303.15 K	0.00338
in n-butanol, 308.05 K	0.0043
in n-butanol, 312.35 K	0.00528
in n-butanol, 318.15 K	0.00691
in n-butanol, 323.15 K	0.00862
in n-pentanol, 272.15 K	0.000647
in n-pentanol, 277.95 K	0.000925
in n-pentanol, 283.15 K	0.00126
in n-pentanol, 288.15 K	0.00169
in n-pentanol, 293.05 K	0.00221
in n-pentanol, 298.15 K	0.00292
in n-pentanol, 303.15 K	0.00378
in n-pentanol, 308.05 K	0.00483
in n-pentanol, 312.35 K	0.00597
in n-pentanol, 318.15 K	0.00787
in n-pentanol, 323.15 K	0.00988
in n-propanol, 272.15 K	0.000513
in n-propanol, 277.95 K	0.000735
in n-propanol, 283.15 K	0.000998
in n-propanol, 288.15 K	0.00133
in n-propanol, 293.05 K	0.00174
in n-propanol, 298.15 K	0.00229
in n-propanol, 303.15 K	0.00296
in n-propanol, 308.05 K	0.0038
in n-propanol, 312.35 K	0.00468
in n-propanol, 318.15 K	0.00613
in n-propanol, 323.15 K	0.00773
in toluene, 272.15 K	0.00015
in toluene, 278.15 K	0.00023
in toluene, 283.15 K	0.000323
in toluene, 288.15 K	0.000449
in toluene, 293.15 K	0.000618
in toluene, 298.15 K	0.000839
in toluene, 303.35 K	0.00114
in toluene, 308.25 K	0.00151
in toluene, 313.15 K	0.00198
in toluene, 318.15 K	0.0026
in toluene, 323.65 K	0.00346

From BigSolDB 2.1
